How the values were obtained:
[1] = test system: Mus musculus; assay: Incidence of disease (mouse type II collagen) was scored as the percentage of animals within each experimental group that exhibited joint or limb inflammation on day 37 at intraperitoneal dose of 10 mg/kg; assay type: functional
[2] = test system: Mus musculus; assay: Incidence of disease (mouse type II collagen) was scored as the percentage of animals within each experimental group that exhibited joint or limb inflammation on day 37 at intraperitoneal dose of 5 mg/kg; assay type: functional
[3] = test system: Mus musculus; assay: Incidence of disease (mouse type II collagen) was scored as the percentage of animals within each experimental group that exhibited joint or limb inflammation on day 23 at intraperitoneal dose of 10 mg/kg; assay type: functional
[4] = test system: Mus musculus; assay: Incidence of disease (mouse type II collagen) was scored as the percentage of animals within each experimental group that exhibited joint or limb inflammation on day 23 at intraperitoneal dose of 5 mg/kg; assay type: functional
[5] = test system: Mus musculus; assay: Incidence of disease (mouse type II collagen) was scored as the percentage of animals within each experimental group that exhibited joint or limb inflammation on day 44 at intraperitoneal dose of 10 mg/kg; assay type: functional
[6] = test system: Mus musculus; assay: Incidence of disease (mouse type II collagen) was scored as the percentage of animals within each experimental group that exhibited joint or limb inflammation on day 44 at intraperitoneal dose of 5 mg/kg; assay type: functional
[7] = test system: Mus musculus; assay: Incidence of disease (mouse type II collagen) was scored as the percentage of animals within each experimental group that exhibited joint or limb inflammation on day 30 at intraperitoneal dose of 10 mg/kg; assay type: functional
[8] = test system: Mus musculus; assay: Incidence of disease (mouse type II collagen) was scored as the percentage of animals within each experimental group that exhibited joint or limb inflammation on day 30 at intraperitoneal dose of 5 mg/kg; assay type: functional
[9] = test system: Mus musculus; assay: Tested for antiinflammatory activity on mouse type II collagen arthritis as Paw swelling of all animals in each group on day 44 at intraperitoneal dose of 5 mg/kg; assay type: functional
[10] = test system: Mus musculus; assay: Tested for antiinflammatory activity on mouse type II collagen arthritis as Paw swelling of all animals in each group on day 30 at intraperitoneal dose of 10 mg/kg; assay type: functional
[11] = test system: Mus musculus; assay: Tested for antiinflammatory activity on mouse type II collagen arthritis as Paw swelling of all animals in each group on day 23 at intraperitoneal dose of 10 mg/kg; assay type: functional
[12] = test system: Mus musculus; assay: Tested for antiinflammatory activity on mouse type II collagen arthritis as Paw swelling of all animals in each group on day 23 at intraperitoneal dose of 5 mg/kg; assay type: functional
[13] = test system: Mus musculus; assay: Tested for antiinflammatory activity on mouse type II collagen arthritis as Paw swelling of all animals in each group on day 44 at intraperitoneal dose of 10 mg/kg; assay type: functional
[14] = test system: Mus musculus; assay: Tested for antiinflammatory activity on mouse type II collagen arthritis as Paw swelling of all animals in each group on day 37 at intraperitoneal dose of 5 mg/kg; assay type: functional
[15] = test system: Mus musculus; assay: Tested for antiinflammatory activity on mouse type II collagen arthritis as Paw swelling of all animals in each group on day 37 at intraperitoneal dose of 10 mg/kg; assay type: functional
[16] = test system: Mus musculus; assay: Tested for antiinflammatory activity on mouse type II collagen arthritis as Paw swelling of all animals in each group on day 30 at intraperitoneal dose of 5 mg/kg; assay type: functional
[17] = Concentration required to inhibit the growth of chang liver cells.; assay type: functional; settings: Homo sapiens
[18] = test system: L1210; assay: Concentration required to inhibit the growth of L1210 cells.; assay type: functional, cell-based; settings: Mus musculus
[19] = test system: Mus musculus; assay: Incidence of disease (mouse type II collagen) was scored as the percentage of animals within each experimental group that exhibited joint or limb inflammation on day 37 at intraperitoneal dose of 0.75 mg/kg; assay type: functional
[20] = test system: Mus musculus; assay: Incidence of disease (mouse type II collagen) was scored as the percentage of animals within each experimental group that exhibited joint or limb inflammation on day 37 at intraperitoneal dose of 1.5 mg/kg; assay type: functional
[21] = test system: Mus musculus; assay: Incidence of disease (mouse type II collagen) was scored as the percentage of animals within each experimental group that exhibited joint or limb inflammation on day 37 at intraperitoneal dose of 3 mg/kg; assay type: functional
[22] = test system: Mus musculus; assay: Incidence of disease (mouse type II collagen) was scored as the percentage of animals within each experimental group that exhibited joint or limb inflammation on day 23 at intraperitoneal dose of 0.38 mg/kg; assay type: functional
[23] = test system: Mus musculus; assay: Incidence of disease (mouse type II collagen) was scored as the percentage of animals within each experimental group that exhibited joint or limb inflammation on day 23 at intraperitoneal dose of 0.75 mg/kg; assay type: functional
[24] = test system: Mus musculus; assay: Incidence of disease (mouse type II collagen) was scored as the percentage of animals within each experimental group that exhibited joint or limb inflammation on day 23 at intraperitoneal dose of 1.5 mg/kg; assay type: functional
[25] = test system: Mus musculus; assay: Incidence of disease (mouse type II collagen) was scored as the percentage of animals within each experimental group that exhibited joint or limb inflammation on day 23 at intraperitoneal dose of 3 mg/kg; assay type: functional
[26] = test system: Mus musculus; assay: Incidence of disease (mouse type II collagen) was scored as the percentage of animals within each experimental group that exhibited joint or limb inflammation on day 23 at intraperitoneal dose of 6 mg/kg (1 animal died); assay type: functional
[27] = test system: Mus musculus; assay: Incidence of disease (mouse type II collagen) was scored as the percentage of animals within each experimental group that exhibited joint or limb inflammation on day 37 at intraperitoneal dose of 0.38 mg/kg; assay type: functional
[28] = test system: Mus musculus; assay: Incidence of disease (mouse type II collagen) was scored as the percentage of animals within each experimental group that exhibited joint or limb inflammation on day 44 at intraperitoneal dose of 1.5 mg/kg; assay type: functional
[29] = test system: Mus musculus; assay: Incidence of disease (mouse type II collagen) was scored as the percentage of animals within each experimental group that exhibited joint or limb inflammation on day 44 at intraperitoneal dose of 3 mg/kg; assay type: functional
[30] = test system: Mus musculus; assay: Incidence of disease (mouse type II collagen) was scored as the percentage of animals within each experimental group that exhibited joint or limb inflammation on day 44 at intraperitoneal dose of 6 mg/kg (1 animal died); assay type: functional
[31] = test system: Mus musculus; assay: Incidence of disease (mouse type II collagen) was scored as the percentage of animals within each experimental group that exhibited joint or limb inflammation on day 44 at intraperitoneal dose of 0.38 mg/kg; assay type: functional
[32] = test system: Mus musculus; assay: Incidence of disease (mouse type II collagen) was scored as the percentage of animals within each experimental group that exhibited joint or limb inflammation on day 44 at intraperitoneal dose of 0.75 mg/kg; assay type: functional
[33] = test system: Mus musculus; assay: Incidence of disease (mouse type II collagen) was scored as the percentage of animals within each experimental group that exhibited joint or limb inflammation on day 30 at intraperitoneal dose of 6 mg/kg (1 animal died); assay type: functional
[34] = test system: Mus musculus; assay: Incidence of disease (mouse type II collagen) was scored as the percentage of animals within each experimental group that exhibited joint or limb inflammation on day 30 at intraperitoneal dose of 3 mg/kg; assay type: functional
[35] = test system: Mus musculus; assay: Incidence of disease (mouse type II collagen) was scored as the percentage of animals within each experimental group that exhibited joint or limb inflammation on day 37 at intraperitoneal dose of 6 mg/kg (1 animal died); assay type: functional
[36] = test system: Mus musculus; assay: Incidence of disease (mouse type II collagen) was scored as the percentage of animals within each experimental group that exhibited joint or limb inflammation on day 30 at intraperitoneal dose of 0.38 mg/kg; assay type: functional
[37] = test system: Mus musculus; assay: Incidence of disease (mouse type II collagen) was scored as the percentage of animals within each experimental group that exhibited joint or limb inflammation on day 30 at intraperitoneal dose of 0.75 mg/kg; assay type: functional
[38] = test system: Mus musculus; assay: Incidence of disease (mouse type II collagen) was scored as the percentage of animals within each experimental group that exhibited joint or limb inflammation on day 30 at intraperitoneal dose of 1.5 mg/kg; assay type: functional
[39] = test system: Mus musculus; assay: Tested for antiinflammatory activity on mouse type II collagen arthritis as Paw swelling of all animals in each group on day 44 at intraperitoneal dose of 1.5 mg/kg; assay type: functional
[40] = test system: Mus musculus; assay: Tested for antiinflammatory activity on mouse type II collagen arthritis as Paw swelling of all animals in each group on day 30 at intraperitoneal dose of 3 mg/kg; assay type: functional
[41] = test system: Mus musculus; assay: Tested for antiinflammatory activity on mouse type II collagen arthritis as Paw swelling of all animals in each group on day 30 at intraperitoneal dose of 6 mg/kg; assay type: functional
[42] = test system: Mus musculus; assay: Tested for antiinflammatory activity on mouse type II collagen arthritis as Paw swelling of all animals in each group on day 23 at intraperitoneal dose of 0.75 mg/kg; assay type: functional
[43] = test system: Mus musculus; assay: Tested for antiinflammatory activity on mouse type II collagen arthritis as Paw swelling of all animals in each group on day 23 at intraperitoneal dose of 6 mg/kg; assay type: functional
[44] = test system: Mus musculus; assay: Tested for antiinflammatory activity on mouse type II collagen arthritis as Paw swelling of all animals in each group on day 30 at intraperitoneal dose of 0.38 mg/kg; assay type: functional
[45] = test system: Mus musculus; assay: Tested for antiinflammatory activity on mouse type II collagen arthritis as Paw swelling of all animals in each group on day 44 at intraperitoneal dose of 0.75 mg/kg; assay type: functional
[46] = test system: Mus musculus; assay: Tested for antiinflammatory activity on mouse type II collagen arthritis as Paw swelling of all animals in each group on day 44 at intraperitoneal dose of 3 mg/kg; assay type: functional
[47] = test system: Mus musculus; assay: Tested for antiinflammatory activity on mouse type II collagen arthritis as Paw swelling of all animals in each group on day 37 at intraperitoneal dose of 3 mg/kg; assay type: functional
[48] = test system: Mus musculus; assay: Tested for antiinflammatory activity on mouse type II collagen arthritis as Paw swelling of all animals in each group on day 37 at intraperitoneal dose of 6 mg/kg; assay type: functional
[49] = test system: Mus musculus; assay: Tested for antiinflammatory activity on mouse type II collagen arthritis as Paw swelling of all animals in each group on day 44 at intraperitoneal dose of 0.38 mg/kg; assay type: functional
[50] = test system: Mus musculus; assay: Tested for antiinflammatory activity on mouse type II collagen arthritis as Paw swelling of all animals in each group on day 30 at intraperitoneal dose of 0.75 mg/kg; assay type: functional
[51] = test system: Mus musculus; assay: Tested for antiinflammatory activity on mouse type II collagen arthritis as Paw swelling of all animals in each group on day 30 at intraperitoneal dose of 1.5 mg/kg; assay type: functional
[52] = test system: Mus musculus; assay: Tested for antiinflammatory activity on mouse type II collagen arthritis as Paw swelling of all animals in each group on day 37 at intraperitoneal dose of 0.38 mg/kg; assay type: functional
[53] = test system: Mus musculus; assay: Tested for antiinflammatory activity on mouse type II collagen arthritis as Paw swelling of all animals in each group on day 37 at intraperitoneal dose of 0.75 mg/kg; assay type: functional
[54] = test system: Mus musculus; assay: Tested for antiinflammatory activity on mouse type II collagen arthritis as Paw swelling of all animals in each group on day 37 at intraperitoneal dose of 1.5 mg/kg; assay type: functional
[55] = test system: Mus musculus; assay: Tested for antiinflammatory activity on mouse type II collagen arthritis as Paw swelling of all animals in each group on day 44 at intraperitoneal dose of 6 mg/kg; assay type: functional
[56] = test system: Mus musculus; assay: Tested for antiinflammatory activity on mouse type II collagen arthritis as Paw swelling of all animals in each group on day 23 at intraperitoneal dose of 0.38 mg/kg; assay type: functional

Work on C#CCC(Cc1cnc2nc(N)nc(N)c2c1C)c1ccc(C(=O)NC(CCC(=O)O)C(=O)O)cc1 (stereo unspecified) yielded an Animals [1] of 71%, an Animals [2] of 62% and an Animals [3] of 14%. For the same molecule, the Animals [4] was 12%, the Animals [5] was 71% and the Animals [6] was 88%. The Animals [7] was 57%, the Animals [8] was 12% and the Paw swelling [9] was 2.64 mm. The Paw swelling [10] was 2.37 mm, the Paw swelling [11] was 2.19 mm and the Paw swelling [12] was 2.18 mm. The Paw swelling [13] was 2.7 mm, the Paw swelling [14] was 2.45 mm and the Paw swelling [15] was 2.65 mm. For the same molecule, the Paw swelling [16] was 2.17 mm.

Molecule C=CCN(Cc1cnc2nc(N)nc(N)c2c1C)c1ccc(C(=O)NC(CCC(=O)O)C(=O)O)cc1 (stereo unspecified) has an IC50 [17] of 30 nM, an IC50 [18] of 3.4 nM and an Animals [19] of 38%. The Animals [20] was 25%, the Animals [21] was 0% and the Animals [22] was 0%. For the same molecule, the Animals [23] was 0%, the Animals [24] was 0% and the Animals [25] was 0%. The Animals [26] was 0%, the Animals [27] was 38% and the Animals [28] was 50%. The Animals [29] was 0%, the Animals [30] was 0% and the Animals [31] was 62%. For the same molecule, the Animals [32] was 50%, the Animals [33] was 0% and the Animals [34] was 0%. It also gave an Animals [35] of 0%, an Animals [36] of 0% and an Animals [37] of 25%. The Animals [38] was 12%, the Paw swelling [39] was 2.32 mm and the Paw swelling [40] was 2.12 mm. For the same molecule, the Paw swelling [41] was 2.1 mm, the Paw swelling [42] was 2.17 mm and the Paw swelling [43] was 2.09 mm. It also gave a Paw swelling [44] of 2.17 mm, a Paw swelling [45] of 2.36 mm and a Paw swelling [46] of 2.16 mm. For the same molecule, the Paw swelling [47] was 2.14 mm, the Paw swelling [48] was 2.15 mm and the Paw swelling [49] was 2.39 mm. The Paw swelling [50] was 2.22 mm, the Paw swelling [51] was 2.24 mm and the Paw swelling [52] was 2.3 mm. It also gave a Paw swelling [53] of 2.33 mm, a Paw swelling [54] of 2.26 mm and a Paw swelling [55] of 2.13 mm. It also gave a Paw swelling [56] of 2.17 mm.
